The supplement of paper PMC11451515

Tested on: P12-Ichikawa
Experiment: cell viability relative to DMSO control; higher = less cytotoxic
Conditions: 48 h
Summary of the method: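 In 1536-well plates, 5 μl of leukemia cells were seeded per well: 500 cells/well for NOMO1 or SEM and 1000 cells/well for P12-Ichikawa. Each line had first been adapted for at least four passages in each medium. Library compounds in DMSO were pin-dosed at 11 threefold concentrations between 47 μM and 0.79 nM, and CellTiter-Glo One luminescence was read after 48 h at 37°C. Viability is a per-plate percentage relative to DMSO wells, with cell-free wells as background.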

[1] = HPLM + 10% dialyzed FBS, 0.000781 µM
[2] = HPLM + 10% dialyzed FBS, 0.00234 µM
[3] = HPLM + 10% dialyzed FBS, 0.00702 µM
[4] = HPLM + 10% dialyzed FBS, 0.0211 µM
[5] = HPLM + 10% dialyzed FBS, 0.0632 µM
[6] = HPLM + 10% dialyzed FBS, 0.19 µM
[7] = HPLM + 10% dialyzed FBS, 0.569 µM
[8] = HPLM + 10% dialyzed FBS, 1.71 µM
[9] = HPLM + 10% dialyzed FBS, 5.12 µM
[10] = HPLM + 10% dialyzed FBS, 15.4 µM
[11] = HPLM + 10% dialyzed FBS, 46.1 µM
[12] = RPMI 5 mM glucose + 10% FBS, 0.000781 µM
[13] = RPMI 5 mM glucose + 10% FBS, 0.00234 µM
[14] = RPMI 5 mM glucose + 10% FBS, 0.00702 µM
[15] = RPMI 5 mM glucose + 10% FBS, 0.0211 µM
[16] = RPMI 5 mM glucose + 10% FBS, 0.0632 µM
[17] = RPMI 5 mM glucose + 10% FBS, 0.19 µM
[18] = RPMI 5 mM glucose + 10% FBS, 0.569 µM
[19] = RPMI 5 mM glucose + 10% FBS, 1.71 µM
[20] = RPMI 5 mM glucose + 10% FBS, 5.12 µM
[21] = RPMI 5 mM glucose + 10% FBS, 15.4 µM
[22] = RPMI 5 mM glucose + 10% FBS, 46.1 µM
[23] = RPMI 5 mM glucose + 10% dialyzed FBS, 0.000781 µM
[24] = RPMI 5 mM glucose + 10% dialyzed FBS, 0.00234 µM
[25] = RPMI 5 mM glucose + 10% dialyzed FBS, 0.00702 µM
[26] = RPMI 5 mM glucose + 10% dialyzed FBS, 0.0211 µM
[27] = RPMI 5 mM glucose + 10% dialyzed FBS, 0.0632 µM
[28] = RPMI 5 mM glucose + 10% dialyzed FBS, 0.19 µM
[29] = RPMI 5 mM glucose + 10% dialyzed FBS, 0.569 µM
[30] = RPMI 5 mM glucose + 10% dialyzed FBS, 1.71 µM
[31] = RPMI 5 mM glucose + 10% dialyzed FBS, 5.12 µM
[32] = RPMI 5 mM glucose + 10% dialyzed FBS, 15.4 µM
[33] = RPMI 5 mM glucose + 10% dialyzed FBS, 46.1 µM

`CC(C)c1cnn2c(NCc3ccccc3)cc(N[C@@H](CO)[C@H](O)CO)nc12` showed a cell viability [1] of 121%, a cell viability [2] of 128% and a cell viability [3] of 124%. It also gave a cell viability [4] of 127%, a cell viability [5] of 129% and a cell viability [6] of 127%. It also gave a cell viability [7] of 120%, a cell viability [8] of 35.4% and a cell viability [9] of 8.12%. It also gave a cell viability [10] of 5.35% and a cell viability [11] of 4.01%.
Molecule `COc1ccc(Cc2ccc(NC(N)=O)cc2)cc1-c1cccc(Cl)c1` has a cell viability [1] of 112%, a cell viability [2] of 115% and a cell viability [3] of 127%. It also gave a cell viability [4] of 121%, a cell viability [5] of 118% and a cell viability [6] of 118%. The cell viability [7] was 123%, the cell viability [8] was 124% and the cell viability [9] was 126%. It also gave a cell viability [10] of 122%, a cell viability [11] of 116% and a cell viability [12] of 114%. The cell viability [13] was 134%, the cell viability [14] was 122% and the cell viability [15] was 131%. It also gave a cell viability [16] of 130%, a cell viability [17] of 127% and a cell viability [18] of 117%. For the same molecule, the cell viability [19] was 130%, the cell viability [20] was 149% and the cell viability [21] was 132%. It also gave a cell viability [22] of 124%, a cell viability [23] of 110% and a cell viability [24] of 120%. For the same molecule, the cell viability [25] was 113%, the cell viability [26] was 111% and the cell viability [27] was 117%. For the same molecule, the cell viability [28] was 119%, the cell viability [29] was 115% and the cell viability [30] was 131%. For the same molecule, the cell viability [31] was 121%, the cell viability [32] was 124% and the cell viability [33] was 113%.
In the case of `CCN(CC)CC#CCOC(=O)C(O)(c1ccccc1)C1CCCCC1` (stereo unspecified), the cell viability [1] is reported as 105%, the cell viability [2] is reported as 118% and the cell viability [3] is reported as 113%. For the same molecule, the cell viability [4] was 78.3%, the cell viability [5] was 119% and the cell viability [6] was 110%. The cell viability [7] was 120%, the cell viability [8] was 117% and the cell viability [9] was 118%. For the same molecule, the cell viability [10] was 118%, the cell viability [11] was 106% and the cell viability [23] was 118%. It also gave a cell viability [24] of 119%, a cell viability [25] of 120% and a cell viability [26] of 85.5%. It also gave a cell viability [27] of 137%, a cell viability [28] of 135% and a cell viability [29] of 125%. For the same molecule, the cell viability [30] was 123%, the cell viability [31] was 122% and the cell viability [32] was 117%. The cell viability [33] was 111%.
Work on `NC[C@H]1CC[C@H](C(=O)O)CC1` yielded a cell viability [12] of 15%, a cell viability [13] of 141% and a cell viability [14] of 125%. It also gave a cell viability [15] of 134%, a cell viability [16] of 139% and a cell viability [17] of 123%. For the same molecule, the cell viability [18] was 136%, the cell viability [19] was 129% and the cell viability [20] was 132%. The cell viability [21] was 128% and the cell viability [22] was 121%.
With `CC(C)(C)C(=O)Oc1ccc2c(c1)nc(NC(=O)c1cccc([N+](=O)[O-])c1)n2CCCO` the cell viability [1] was 120%, the cell viability [2] was 123% and the cell viability [3] was 118%. For the same molecule, the cell viability [4] was 119%, the cell viability [5] was 115% and the cell viability [6] was 119%. The cell viability [7] was 116%, the cell viability [8] was 106% and the cell viability [9] was 109%. It also gave a cell viability [10] of 111%, a cell viability [11] of 106% and a cell viability [23] of 118%. For the same molecule, the cell viability [24] was 122%, the cell viability [25] was 121% and the cell viability [26] was 117%. It also gave a cell viability [27] of 118%, a cell viability [28] of 112% and a cell viability [29] of 115%. It also gave a cell viability [30] of 103%, a cell viability [31] of 111% and a cell viability [32] of 97.4%. The cell viability [33] was 89.4%.
Molecule `ClC1=C(N\C2=N\CCN2)C3=NSN=C3C=C1` has a cell viability [1] of 106%, a cell viability [2] of 117% and a cell viability [3] of 122%. For the same molecule, the cell viability [4] was 130%, the cell viability [5] was 119% and the cell viability [6] was 117%. The cell viability [7] was 119%, the cell viability [8] was 115% and the cell viability [9] was 120%. The cell viability [10] was 127%, the cell viability [11] was 124% and the cell viability [23] was 107%. For the same molecule, the cell viability [24] was 115%, the cell viability [25] was 114% and the cell viability [26] was 127%. For the same molecule, the cell viability [27] was 124%, the cell viability [28] was 116% and the cell viability [29] was 129%. For the same molecule, the cell viability [30] was 115%, the cell viability [31] was 124% and the cell viability [32] was 120%. For the same molecule, the cell viability [33] was 127%.
Molecule `C[C@H](NC(=O)/C(C#N)=C/c1cccc(Br)n1)c1ccccc1` has a cell viability [1] of 107%, a cell viability [2] of 113% and a cell viability [3] of 112%. For the same molecule, the cell viability [4] was 121%, the cell viability [5] was 119% and the cell viability [6] was 122%. The cell viability [7] was 120%, the cell viability [8] was 45.1% and the cell viability [9] was 7.82%. The cell viability [10] was 7.53%, the cell viability [11] was 7.45% and the cell viability [12] was 112%. For the same molecule, the cell viability [13] was 119%, the cell viability [14] was 112% and the cell viability [15] was 111%. The cell viability [16] was 118%, the cell viability [17] was 125% and the cell viability [18] was 131%. The cell viability [19] was 88.3%, the cell viability [20] was 9.63% and the cell viability [21] was 6.78%. The cell viability [22] was 6.3%, the cell viability [23] was 111% and the cell viability [24] was 109%. The cell viability [25] was 113%, the cell viability [26] was 111% and the cell viability [27] was 109%. The cell viability [28] was 126%, the cell viability [29] was 121% and the cell viability [30] was 79.2%. The cell viability [31] was 9.86%, the cell viability [32] was 7.21% and the cell viability [33] was 6.61%.
For `CC1=NN(c2ccc(C)c(C)c2)C(=O)/C1=N/Nc1cccc(-c2cccc(C(=O)O)c2)c1O`, the cell viability [1] was 120%, the cell viability [2] was 120% and the cell viability [3] was 129%. The cell viability [4] was 124%, the cell viability [5] was 116% and the cell viability [6] was 127%. The cell viability [7] was 121%, the cell viability [8] was 118% and the cell viability [9] was 112%. It also gave a cell viability [10] of 91.1% and a cell viability [11] of 68.1%.
Molecule `C[C@H](O)[C@H]1[C@@H]2[C@H](C)C(=C(\N2C1=O)C(O)=O)/S[C@@H]3CN[C@H](CN[S+](N)([O-])=O)C3` has a cell viability [1] of 118%, a cell viability [2] of 125% and a cell viability [3] of 132%. It also gave a cell viability [4] of 129%, a cell viability [5] of 124% and a cell viability [6] of 125%. The cell viability [7] was 124%, the cell viability [8] was 121% and the cell viability [9] was 121%. The cell viability [10] was 113%, the cell viability [11] was 104% and the cell viability [12] was 123%. The cell viability [13] was 126%, the cell viability [14] was 123% and the cell viability [15] was 128%. For the same molecule, the cell viability [16] was 124%, the cell viability [17] was 122% and the cell viability [18] was 123%. It also gave a cell viability [19] of 111%, a cell viability [20] of 117% and a cell viability [21] of 103%. The cell viability [22] was 105%.
`CN1[C@@H]2CC[C@H]1CC(OC(=O)c1c[nH]c3ccccc13)C2` (stereo partly specified) gave a cell viability [1] of 125%, a cell viability [2] of 127% and a cell viability [3] of 119%. It also gave a cell viability [4] of 96.1%, a cell viability [5] of 110% and a cell viability [6] of 117%. It also gave a cell viability [7] of 116%, a cell viability [8] of 126% and a cell viability [9] of 111%. The cell viability [10] was 114%, the cell viability [11] was 111% and the cell viability [23] was 120%. The cell viability [24] was 115%, the cell viability [25] was 121% and the cell viability [26] was 107%. For the same molecule, the cell viability [27] was 116%, the cell viability [28] was 116% and the cell viability [29] was 120%. The cell viability [30] was 117%, the cell viability [31] was 118% and the cell viability [32] was 113%. The cell viability [33] was 107%.
For `CN\1C(=O)/C(=C(\N=C1N2CCCC[S+]2([O-])=O)C(=O)NCC3=CC=C(F)C=C3)O`, the cell viability [1] was 124%, the cell viability [2] was 123% and the cell viability [3] was 115%. For the same molecule, the cell viability [4] was 113%, the cell viability [5] was 118% and the cell viability [6] was 122%. For the same molecule, the cell viability [7] was 119%, the cell viability [8] was 111% and the cell viability [9] was 107%. It also gave a cell viability [10] of 109%, a cell viability [11] of 103% and a cell viability [23] of 124%. The cell viability [24] was 116%, the cell viability [25] was 119% and the cell viability [26] was 126%. The cell viability [27] was 127%, the cell viability [28] was 117% and the cell viability [29] was 123%. It also gave a cell viability [30] of 120%, a cell viability [31] of 99.7% and a cell viability [32] of 109%. The cell viability [33] was 102%.
